In patent publication US20260159525A1, “TRICYCLIC HETEROCYCLES” (Merck Patent GmbH, priority 2021, published 2026):

test system: YAP-TEAD interaction; assay: SK-HEP-1 reporter assay (8x TEAD responsive elements driving NanoLuc luciferase); format: cell-based; settings: Homo sapiens, SK-HEP1, SK-HEP-1 cells, 24 hour incubation, group symbols
Procedure: To identify inhibitors of YAP-TEAD interaction, 8× TEAD responsive elements driving the NanoLuc® luciferase gene were stably integrated into SK-HEP-1 cells (ECACC #: 91091816).
For the assay, cells were treated in duplicates with the test compounds in a 10-point dose, with the top concentration starting at 30 μM (final concentration in assay). After a 24 hour incubation at 37° C., 95% rH, and 5% CO2, a luciferase substrate/lysis reagent mix (NanoGlo™, Promega) was added to the cells, allowing the quantification of cellular luciferase activity.
Cell Media: The cells were cultured in the following media: MEM, +10% FBS, +1× GlutaMAX, +1 mM Sodium-Pyruvate, +100 μM Non-essential amino acids, +0.1 mg/ml Hygromycin. The media used for the assay was: MEM (w/o Phenol Red), +10% FBS, +1× GlutaMAX, +1 mM Sodium-Pyruvate, +100 μM Non-essential amino acids, +0.5% Pen/Strep
Reagents: The reagents used are listed below:
Cell culture: The cells were examined using an inverted microscope to check for health and cell density. To dissociate adherent cells, the monolayer of cells was washed once with pre-warmed PBS. After removing the PBS, 3 ml pre-warmed Accutase® was added to a F75 flask, dispersed evenly and the flask was allowed to sit in incubator for ˜4-5 minutes.
When a single cell suspension was obtained, 7 ml of prewarmed growth media was added and resuspended with the cells. The cell suspension was transferred to a sterile 15 ml conical centrifuge tube, and spun for 5 min at 300×g, RT. The supernatant was discarded and the pellet was resuspended in 10 ml of pre-warmed growth media.
The total cell count was determined, and 20 μl of the desired cell number was added to each well of a 384 well plate using a Multidrop Combi. The plates were then incubated for 24 hours at 37° C., 95% rH, and 5% CO2.
Compound treatment: 24 hours after seeding, the cells were treated with compounds.
A 1:333 dilution of compounds, diluted in DMSO, was made to get a final concentration of 0.3% DMSO per well. To transfer the compounds to the assay plate, 120 nl was shot from Labcyte low dead volume plates to the cell plates containing 20 μl media/well with the ECHO 555 liquid handling system. After treatment, the cells were fed with 20 μl fresh pre-warmed assay media using a Multidrop combi.
The assay plates were then incubated for another 24 h at 37° C., 95% rH, and 5% CO2.
Luciferase readout: 24 h after treatment, the plates were taken out of the incubator and were allowed to equilibrate to RT. 30 μl of NanoGlo® reagent was added to the plates in the dark. Plates were shaken for 20 min on a Teleshake (˜1500 rpm) in the dark. The luminescence was then measured using an EnVision microplate reader. The IC50 values were generated using Genedata Screener®.

| IC50 [nM] | SMILES |
| --- | --- |
| 100 to 10000 | CC[C@H](O)CNC(=O)c1cc2c3cn(C)nc3n(-c3ccc(C(F)(F)F)cc3)c2s1 [Compound 83, N-[(2S)-2-hydroxybutyl]-4-methyl-7-[4-(trifluoromethyl)phenyl]-9-thia-4,5,7-triazatricyclo[6.3.0.0^2,6]undeca-1(8),2,5,10-tetraene-10-carboxamide] |
| 10 to 100 | C[C@H](CO)NC(=O)c1cc2c3cn(C)nc3n(-c3ccc(SC(F)(F)F)cc3)c2s1 [Compound 84, N-[(2R)-1-hydroxypropan-2-yl]-4-methyl-7-{4-[(trifluoromethyl)sulfanyl]phenyl}-9-thia-4,5,7-triazatricyclo[6.3.0.0^2,6]undeca-1(8),2,5,10-tetraene-10-carboxamide] |
| 10 to 100 | CNC(=O)c1cc2c3cn(C)nc3n(-c3ccc(SC(F)(F)F)cc3)c2s1 [Compound 85, N,4-dimethyl-7-{4-[(trifluoromethyl)sulfanyl]phenyl}-9-thia-4,5,7-triazatricyclo[6.3.0.0^2,6]undeca-1(8),2,5,10-tetraene-10-carboxamide] |
| 100 to 10000 | Cn1cc2c3cc(C#N)sc3n(-c3ccc(C(F)(F)F)cc3)c2n1 [Compound 94, 4-methyl-7-[4-(trifluoromethyl)phenyl]-9-thia-4,5,7-triazatricyclo[6.3.0.0^2,6]undeca-1(8),2,5,10-tetraene-10-carbonitrile] |
| 100 to 10000 | Cn1cc2c3cc(C(=O)O)sc3n(-c3ccc(S(F)(F)(F)(F)F)cc3)c2n1 [Compound 98, 4-methyl-7-[4-(pentafluoro-lambda6-sulfanyl)phenyl]-9-thia-4,5,7-triazatricyclo[6.3.0.0^2,6]undeca-1(8),2,5,10-tetraene-10-carboxylic acid] |
| 100 to 10000 | Cn1cc2c3cc(C(=O)N[C@@H](CO)c4ccccn4)sc3n(-c3ccc(C(F)F)cc3)c2n1 [Compound 101, 7-[4-(difluoromethyl)phenyl]-N-[(1R)-2-hydroxy-1-(pyridin-2-yl)ethyl]-4-methyl-9-thia-4,5,7-triazatricyclo[6.3.0.0^2,6]undeca-1(8),2,5,10-tetraene-10-carboxamide] |
| 100 to 10000 | Cn1nc2c3cc(C(=O)N4CC[C@H](O)C4)sc3n(-c3ccc(C(F)(F)F)cc3)c2n1 [Compound 103, (3S)-1-{4-methyl-7-[4-(trifluoromethyl)phenyl]-9-thia-3,4,5,7-tetraazatricyclo[6.3.0.0^2,6]undeca-1(8),2,5,10-tetraene-10-carbonyl}pyrrolidin-3-ol] |
| 100 to 10000 | Cn1nc2c3cc(C(=O)N[C@@H](CO)c4ccccn4)sc3n(-c3ccc(C(F)(F)F)cc3)c2n1 [Compound 104, N-[(1R)-2-hydroxy-1-(pyridin-2-yl)ethyl]-4-methyl-7-[4-(trifluoromethyl)phenyl]-9-thia-3,4,5,7-tetraazatricyclo[6.3.0.0^2,6]undeca-1(8),2,5,10-tetraene-10-carboxamide] |
| 100 to 10000 | C[C@H](CO)NC(=O)c1cc2c3nn(C)nc3n(-c3ccc(C(F)(F)F)cc3)c2s1 [Compound 106, N-[(2R)-1-hydroxypropan-2-yl]-4-methyl-7-[4-(trifluoromethyl)phenyl]-9-thia-3,4,5,7-tetraazatricyclo[6.3.0.0^2,6]undeca-1(8),2,5,10-tetraene-10-carboxamide] |
| 100 to 10000 | C[C@H](CO)NC(=O)c1cc2c3cn(C)nc3n(-c3ccc(C(F)F)cc3)c2s1 [Compound 107, 7-[4-(difluoromethyl)phenyl]-N-[(2R)-1-hydroxypropan-2-yl]-4-methyl-9-thia-4,5,7-triazatricyclo[6.3.0.0^2,6]undeca-1(8),2,5,10-tetraene-10-carboxamide] |
| > 10000 | Cn1nc2c3cc(C(=O)N4CC[C@@H](O)C4)sc3n(-c3ccc(C(F)(F)F)cc3)c2n1 [Compound 108, (3R)-1-{4-methyl-7-[4-(trifluoromethyl)phenyl]-9-thia-3,4,5,7-tetraazatricyclo[6.3.0.0^2,6]undeca-1(8),2,5,10-tetraene-10-carbonyl}pyrrolidin-3-ol] |
| 100 to 10000 | Cn1nc2c3cc(C(=O)N[C@H](CO)c4ccccn4)sc3n(-c3ccc(C(F)(F)F)cc3)c2n1 [Compound 109, N-[(1S)-2-hydroxy-1-(pyridin-2-yl)ethyl]-4-methyl-7-[4-(trifluoromethyl)phenyl]-9-thia-3,4,5,7-tetraazatricyclo[6.3.0.0^2,6]undeca-1(8),2,5,10-tetraene-10-carboxamide] |
| 100 to 10000 | COCC(CO)NC(=O)c1cc2c3cn(C)nc3n(-c3ccc(C(F)(F)F)cc3)c2s1 (centres unmarked) [Compound 111, N-(1-hydroxy-3-methoxypropan-2-yl)-4-methyl-7-[4-(trifluoromethyl)phenyl]-9-thia-4,5,7-triazatricyclo[6.3.0.0^2,6]undeca-1(8),2,5,10-tetraene-10-carboxamide] |
| 10 to 100 | Cn1cc2c3cc(C(=O)O)sc3n(-c3ccc(OC(F)F)cn3)c2n1 [Compound 127, 7-[5-(difluoromethoxy)pyridin-2-yl]-4-methyl-9-thia-4,5,7-triazatricyclo[6.3.0.0^2,6]undeca-1(8),2,5,10-tetraene-10-carboxylic acid] |

same assay, conditions: Homo sapiens, SK-HEP1, SK-HEP-1 cells, 24 hour incubation, number, or n.d. (x) = not detectable below threshold x

| IC50 [nM] | SMILES |
| --- | --- |
| > 30000 | C[C@H](CO)NC(=O)c1cc2c3cn(C)nc3n(-c3ccc(C(F)(F)F)nc3)c2s1 [Compound 86, N-[(2R)-1-hydroxypropan-2-yl]-4-methyl-7-[6-(trifluoromethyl)pyridin-3-yl]-9-thia-4,5,7-triazatricyclo[6.3.0.0^2,6]undeca-1(8),2,5,10-tetraene-10-carboxamide] |
| > 30000 | CNC(=O)c1cc2c3cn(C)nc3n(-c3ccc(C(F)(F)F)nc3)c2s1 [Compound 87, N,4-dimethyl-7-[6-(trifluoromethyl)pyridin-3-yl]-9-thia-4,5,7-triazatricyclo[6.3.0.0^2,6]undeca-1(8),2,5,10-tetraene-10-carboxamide] |
| 980 | Cn1cc2c3cc(C(N)=O)sc3n(-c3ccc(C(F)(F)F)cc3)c2n1 [Compound 89, 4-methyl-7-[4-(trifluoromethyl)phenyl]-9-thia-4,5,7-triazatricyclo[6.3.0.0^2,6]undeca-1(8),2,5,10-tetraene-10-carboxamide] |
| > 30000 | C[C@@H](CO)NC(=O)c1cc2c3nn(C)nc3n(-c3ccc(C(F)(F)F)cc3)c2s1 [Compound 110, N-[(2S)-1-hydroxypropan-2-yl]-4-methyl-7-[4-(trifluoromethyl)phenyl]-9-thia-3,4,5,7-tetraazatricyclo[6.3.0.0^2,6]undeca-1(8),2,5,10-tetraene-10-carboxamide] |
| > 9500 | Cn1cc2c3cc(C(=O)NC(CO)CO)sc3n(-c3ccc(C(F)(F)F)cc3)c2n1 [Compound 112, N-(1,3-dihydroxypropan-2-yl)-4-methyl-7-[4-(trifluoromethyl)phenyl]-9-thia-4,5,7-triazatricyclo[6.3.0.0^2,6]undeca-1(8),2,5,10-tetraene-10-carboxamide] |
| > 9500 | Cn1cc2c3cc(C(=O)N[C@@H](CO)c4ccccn4)sc3n(-c3ccc(C(F)(F)F)cn3)c2n1 [Compound 113, N-[(1R)-2-hydroxy-1-(pyridin-2-yl)ethyl]-4-methyl-7-[5-(trifluoromethyl)pyridin-2-yl]-9-thia-4,5,7-triazatricyclo[6.3.0.0^2,6]undeca-1(8),2,5,10-tetraene-10-carboxamide] |
| > 3000 | CC[C@H](CO)NC(=O)c1cc2c3cn(C)nc3n(-c3ccc(C(F)(F)F)cn3)c2s1 [Compound 114, N-[(2R)-1-hydroxybutan-2-yl]-4-methyl-7-[5-(trifluoromethyl)pyridin-2-yl]-9-thia-4,5,7-triazatricyclo[6.3.0.0^2,6]undeca-1(8),2,5,10-tetraene-10-carboxamide] |
| > 300 | Cn1cc2c3cc(C(=O)NCC(O)CO)sc3n(-c3ccc(C(F)(F)F)cn3)c2n1 (centres unmarked) [Compound 115, N-(2,3-dihydroxypropyl)-4-methyl-7-[5-(trifluoromethyl)pyridin-2-yl]-9-thia-4,5,7-triazatricyclo[6.3.0.0^2,6]undeca-1(8),2,5,10-tetraene-10-carboxamide] |
| > 30000 | Cn1ccc(C(CO)NC(=O)c2cc3c4cn(C)nc4n(-c4ccc(C(F)(F)F)cn4)c3s2)n1 (centres unmarked) [Compound 116, N-[2-hydroxy-1-(1-methyl-1H-pyrazol-3-yl)ethyl]-4-methyl-7-[5-(trifluoromethyl)pyridin-2-yl]-9-thia-4,5,7-triazatricyclo[6.3.0.0^2,6]undeca-1(8),2,5,10-tetraene-10-carboxamide] |
